Laboratory results published in patent publication US20230399287A1, “NOVEL COMPOUNDS” (Sitryx Therapeutics Limited, priority 2020, published 2023).
Counter-ions that a name gives are not always drawn.

Assays:
IL-6 = assay: THP-1 AlphaLISA IL-6 cytokine assay; format: cell-based; details: LPS 24 hr then Nigericin 1 hour
Procedure: (§1) Measuring Inhibitory Effects on IL-1V and IL-6 Cytokine Output from THP-1s
(§2) The cytokine inhibition profiles of compounds of formula (I) were determined in a differentiated THP-1 cell assay. All assays were performed in RPMI-1640 growth medium (Gibco), supplemented with 10% fetal bovine serum (FBS; Gibco), 1% penicillin-streptomycin and 1% sodium pyruvate unless specified otherwise. The IL-1β and IL-6 cytokine inhibition assays were run in a background of differentiated THP-1 cells as described below. All reagents described were from Sigma-Aldrich unless specified otherwise. Compounds were prepared as 10 mM DMSO stocks.
(§3) THP-1 cells were expanded as a suspension up to 80% confluence in appropriate growth medium. Cells were harvested, suspended, and treated with an appropriate concentration of phorbol 12-myristate 13-acetate (PMA) over a 72 hr period (37° C./5% CO2).
(§4) Following 72 hrs of THP-1 cell incubation, cellular medium was removed and replaced with fresh growth media containing 1% of FBS. Working concentrations of compounds were prepared separately in 10% FBS treated growth medium and pre-incubated with the cells for 30 minutes (37° C./5% CO2). Following the 30 minute compound pre-incubation, THP-1s were treated with an appropriate concentration of LPS and the THP-1s were subsequently incubated for a 24 hr period (37° C./5% CO2). An appropriate final concentration of Nigericin was then dispensed into the THP-1 plates and incubated for 1 hour (37° C./5% CO2) before THP-1 supernatants were harvested and collected in separate polypropylene 96-well holding plates.
(§5) Reagents from each of the IL-1β and IL-6 commercial kits (Perkin Elmer) were prepared and run according to the manufacturer's instructions. Subsequently, fluorescence signal detection in a microplate reader was measured (EnVision® Multilabel Reader, Perkin Elmer).
(§6) Percentage inhibition was calculated per cytokine by normalising the sample data to the high and low controls used within each plate (+/−LPS respectively). Percentage inhibition was then plotted against compound concentration and the 50% inhibitory concentration ([…]) was determined from the resultant concentration-response curve.

IL-1β = assay: THP-1 AlphaLISA IL-1β cytokine assay; format: cell-based; details: LPS 24 hr then Nigericin 1 hour
Procedure: as §1, §2, §3, §4, §5, §6

NRF2 = NRF2 +/- GSH activation assay (DiscoverX PathHunter NRF2 translocation kit); format: cell-based; details: for Emax / NRF2 activation Emax: normalised to dimethyl fumarate high control; for EC50: U2OS PathHunter cells
[1] = Hepatocyte stability assay (mouse); format: in vitro ADME; details: mouse, cryopreserved hepatocytes, 10 μM compound, 60 min, read-out: T½
Source text: (§7) Defrosted cryo-preserved hepatocytes (viability>70%) were used to determine the metabolic stability of a compound via calculation of intrinsic clearance (Clint; a measure of the removal of a compound from the liver in the absence of blood flow and cell binding). Clearance data are particularly important for in vitro work as they can be used in combination with in vivo data to predict the half-life and oral bioavailability of a drug.
(§8) The metabolic stability in hepatocytes assay involved a time-dependent reaction using both positive and negative controls. The cells must be pre-incubated at 37° C. then spiked with test compound (and positive control); samples taken at pre-determined time intervals were analysed to monitor the change in concentration of the initial drug compound over 60 minutes. A buffer incubation reaction (with no hepatocytes present) acted as a negative control and two cocktail solutions, containing compounds with known high and low clearance values (verapamil/7-hydroxycoumarin and propranolol/diltiazem), acted as positive controls. • 1. The assay was run with a cell concentration of 0.5×10^6 cells/mL in Leibovitz buffer. • 2. All compounds and controls were run in duplicate. • 3. Compound concentration was 10 μM. • 4. All compounds and controls were incubated with both cells and buffer to show turnover is due to hepatic metabolism. • 5. All wells on the incubation plate had 326.7 μL of either cells or buffer added. • 6. Prior to assay, cell and buffer-only incubation plates were preincubated for 10 mins at 37° C. • 7. The assay was initiated by adding compounds, 3.3 μL of 1 mM in 10% DMSO-90% Buffer; final DMSO concentration is 0.1%. • 8. Samples were taken at regular timepoints (0, 5, 10, 20, 40, 60 min) until 60 mins. • 9. Sample volume was 40 μL and added to 160 μL of crash solvent (acetonitrile with internal standard) and stored on ice. • 10. At the end of the assay, the crash plates were centrifuged at 3500 rpm for 20 mins at 4° C. • 11. 80 μL of clear supernatant was removed and mixed with 80 μL of deionised water before being analysed by LC-MS/MS.
(§9) Raw LC-MS/MS data were exported to, and analysed in, Microsoft Excel for determination of intrinsic clearance. The percentage remaining of a compound was monitored using the peak area of the initial concentration as 100%. Intrinsic clearance and half-life values were calculated using a graph of the natural log of percentage remaining versus the time of reaction in minutes. Half-life (min) and intrinsic clearance (Clint in μL min^−1 10^−6 cells) values were calculated using the gradient of the graph (the elimination rate constant, k) and Equations 1 and 2.

hepatocytes [2] = assay: Hepatocyte stability assay (mouse); format: in vitro ADME; details: 10 μM compound, 60 min
Source text: as §7, §8, §9

hepatocytes [3] = assay: Hepatocyte stability assay (human); format: in vitro ADME; details: 10 μM compound, 60 min
Source text: as §7, §8, §9

[4] = Homo sapiens, THP-1, differentiated THP-1 cells

SMILES	IC50 (IL-6; [4]) [µM]	IC50 (IL-1β; [4]) [µM]	other results
C=C(CC(=O)OC1(c2cc(F)c(C(F)(F)F)c(F)c2)CCC1)C(=O)O [Example 53, 4-(1-(3,5-difluoro-4-(trifluoromethyl)phenyl)cyclobutoxy)-2-methylene-4-oxobutanoic acid]	> 100	29.7	–
C=C(CC(=O)OC1(c2ccc(C(F)(F)F)cc2)CN(C)C1)C(=O)O [Example 48, 4-((1-methyl-3-(4-(trifluoromethyl)phenyl)azetidin-3-yl)oxy)-2-methylene-4-oxobutanoic acid]	> 31.6	58.4	–
C=C(CC(=O)O[C@H](C)c1ccc(C(F)(F)F)cc1)C(=O)O [Example 3, (R)-2-methylene-4-oxo-4-(1-(4-(trifluoromethyl)phenyl)ethoxy)butanoic acid]	> 56.2	33.6	–
C=C(CC(=O)OC)C(=O)OC [dimethyl itaconate, reference compound]	100	> 100	Emax (NRF2; +GSH): 77%; Emax (NRF2; −GSH): 137%
C=C(CC(=O)OC(CC)c1ccc(C(F)(F)F)cc1)C(=O)O (stereo not shown) [Example 10, 2-methylene-4-oxo-4-(1-(4-(trifluoromethyl)phenyl)propoxy)butanoic acid]	> 100	5.8	Emax (NRF2; +GSH): 13%; EC50 (NRF2; Homo sapiens, U2OS, +GSH): > 100 µM; EC50 (NRF2; Homo sapiens, U2OS, −GSH): > 100 µM; Emax (NRF2; −GSH): 0%
C=C(CC(=O)OC1(c2cnc(C(F)(F)F)cn2)CCC1)C(=O)O [Example 63, 2-methylene-4-oxo-4-(1-(5-(trifluoromethyl)pyrazin-2-yl)cyclobutoxy)butanoic acid]	> 31.6	50.9	–
C=C(CC(=O)OC1(c2ccc(C(F)(F)F)cc2Cl)CCC1)C(=O)O [Example 6, 4-(1-(2-chloro-4-(trifluoromethyl)phenyl)cyclobutoxy)-2-methylene-4-oxobutanoic acid]	> 100	45.4	–
C=C(CC(=O)OC1(c2ccc(C)c(Cl)c2)CCC1)C(=O)O [Example 14, 4-(1-(3-chloro-4-methylphenyl)cyclobutoxy)-2-methylene-4-oxobutanoic acid]	> 100	24.5	–
C=C(CC(=O)OC1(C#Cc2ccc(C(F)(F)F)cc2)CCC1)C(=O)O [Example 60, 2-methylene-4-oxo-4-(1-((4-(trifluoromethyl)phenyl)ethynyl)cyclobutoxy)butanoic acid]	34.1	> 100	–
C=C(CC(=O)OC1(c2ccc(-c3ccc(F)cc3)cc2)CCC1)C(=O)O [Example 16, 4-(1-(4′-fluoro-[1,1′-biphenyl]-4-yl)cyclobutoxy)-2-methylene-4-oxobutanoic acid]	21.5	> 100	–
C=C(CC(=O)OC1(c2ccc3cc(Br)ccc3c2)CCC1)C(=O)O [Example 54, 4-(1-(6-bromonaphthalen-2-yl)cyclobutoxy)-2-methylene-4-oxobutanoic acid]	18.1	> 100	–
C=C(CC(=O)OCc1ccc(C(F)(F)F)c(F)c1)C(=O)O [Example 55, 4-((3-fluoro-4-(trifluoromethyl)benzyl)oxy)-2-methylene-4-oxobutanoic acid]	> 100	19.5	half-life at 10 μM [1]: 55 min; Clint (hepatocytes [2]): 29 μL min^−1 10^−6 cells
C=C(CC(=O)OCCCCCCCC)C(=O)O [4-octyl itaconate, reference compound]	–	–	Clint (hepatocytes [3]): 401 μL min^−1 10^−6 cells; T½ (hepatocytes [3]): 4 min; Clint (hepatocytes [2]): 351 μL min^−1 10^−6 cells; T½ (hepatocytes [2]): 4 min; EC50 (NRF2; +GSH): 28.9 µM; NRF2 activation Emax (NRF2; +GSH): 148%; EC50 (NRF2; −GSH): 22.1 µM; NRF2 activation Emax (NRF2; −GSH): 165%; IC50 (IL-6; differentiated THP-1 cells): 20.3 µM; IC50 (IL-1β; differentiated THP-1 cells): 38.3 µM
C=C(CC(=O)OC1(c2ccc(C(F)(F)c3ccccc3)cc2)CCC1)C(=O)O [Example 28, 4-(1-(4-(difluoro(phenyl)methyl)phenyl)cyclobutoxy)-2-methylene-4-oxobutanoic acid]	19.6	> 31.6	–
C=C(CC(=O)O[C@@H](c1ccc(C(F)(F)F)cc1)C(F)(F)F)C(=O)O [Example 33, (S)-2-methylene-4-oxo-4-(2,2,2-trifluoro-1-(4-(trifluoromethyl)phenyl)ethoxy)butanoic acid]	> 63.1	> 56.2	–
COC(=O)/C=C/C(=O)OC [dimethyl fumarate, reference compound]	9.3	–	Emax (NRF2; +GSH): 19%; EC50 (NRF2; Homo sapiens, U2OS, +GSH): > 100 µM; EC50 (NRF2; Homo sapiens, U2OS, −GSH): 6 µM; Emax (NRF2; −GSH): 100%; IC50 (IL-1β; differentiated THP-1 cells): 14.4 µM
C#CC(OC(=O)CC(=C)C(=O)O)c1ccc(C(F)(F)F)cc1 (single isomer, unassigned) [Example 37, 2-methylene-4-oxo-4-((1-(4-(trifluoromethyl)phenyl)prop-2-yn-1-yl)oxy)butanoic acid]	–	14.5	Clint (hepatocytes [3]): <3 μL min^−1 10^−6 cells; T½ (hepatocytes [3]): >460 min; Clint (hepatocytes [2]): 34 μL min^−1 10^−6 cells; T½ (hepatocytes [2]): 48 min; IC50 (IL-6; differentiated THP-1 cells): > 31.6 µM
C=C(CC(=O)OC1(c2ccc(C(F)(F)F)cc2)CC(C(F)(F)F)C1)C(=O)O (single isomer, unassigned) [Example 43, 2-methylene-4-oxo-4-(3-(trifluoromethyl)-1-(4-(trifluoromethyl)phenyl)cyclobutoxy)butanoic acid]	> 100	83.5	–
C=C(CC(=O)OCc1ccc(C(F)(F)F)cn1)C(=O)O [Example 56, 2-methylene-4-oxo-4-((5-(trifluoromethyl)pyridin-2-yl)methoxy)butanoic acid]	> 100	46.2	–
C#CC(OC(=O)CC(=C)C(=O)O)c1ccc(C(F)(F)F)cc1 (single isomer, unassigned) [Example 38, 2-methylene-4-oxo-4-((1-(4-(trifluoromethyl)phenyl)prop-2-yn-1-yl)oxy)butanoic acid]	–	–	Clint (hepatocytes [3]): 7 μL min^−1 10^−6 cells; T½ (hepatocytes [3]): 183 min; Clint (hepatocytes [2]): 13 μL min^−1 10^−6 cells; T½ (hepatocytes [2]): 163 min; IC50 (IL-6; differentiated THP-1 cells): > 100 µM; IC50 (IL-1β; differentiated THP-1 cells): 9.4 µM
C=C(CC(=O)OC1(c2ccc(OC(F)(F)F)cc2)CCC1)C(=O)O [Example 15, 2-methylene-4-oxo-4-(1-(4-(trifluoromethoxy)phenyl)cyclobutoxy)butanoic acid]	> 100	15.9	–
